# Measured values published in ChEMBL document CHEMBL3044763, “Inhibitory Activities of Rhodanine Derivatives on Plant Growth” (Biosci Biotechnol Biochem, 1996).
# Columns and labels:
# [1] = Toxicity in Mus musculus ddY (mouse) assessed as mortality at 8 mg/kg, ip after 5 days; type: organism-based; set-up: dose 8 mg/kg, route intraperitoneal; details: in vivo
# [2] = Toxicity in Mus musculus ddY (mouse) assessed as mortality at 7 mg/kg, ip after 6 days; type: organism-based; set-up: dose 7 mg/kg, route intraperitoneal; details: in vivo
# [3] = Toxicity in Mus musculus ddY (mouse) assessed as mortality at 8 mg/kg, ip after 1 day; type: organism-based; set-up: dose 8 mg/kg, route intraperitoneal; details: in vivo
# [4] = Toxicity in Mus musculus ddY (mouse) assessed as mortality at 7 mg/kg, ip after 1 day; type: organism-based; set-up: dose 7 mg/kg, route intraperitoneal; details: in vivo
# Daucus carota [5] = assay: Growth inhibition of Daucus carota (carrot) assessed as root growth at 3 x 10^-5 M after 7 days; type: functional
# [6] = Toxicity in Mus musculus ddY (mouse) assessed as mortality at 6 mg/kg, ip after 7 days; type: organism-based; set-up: dose 6 mg/kg, route intraperitoneal; details: in vivo
# [7] = Toxicity in Mus musculus ddY (mouse) assessed as mortality at 3 mg/kg, ip after 7 days; type: organism-based; set-up: dose 3 mg/kg, route intraperitoneal; details: in vivo
# [8] = Toxicity in Mus musculus ddY (mouse) assessed as mortality at 6 mg/kg, ip after 2 days; type: organism-based; set-up: dose 6 mg/kg, route intraperitoneal; details: in vivo
# Allium tuberosum [9] = assay: Growth inhibition of Allium tuberosum assessed as root growth at 1 x 10^-4 M after 10 days; type: functional
# [10] = Toxicity in Mus musculus ddY (mouse) assessed as mortality at 3 mg/kg, ip after 5 days; type: organism-based; set-up: dose 3 mg/kg, route intraperitoneal; details: in vivo
# [11] = Toxicity in Mus musculus ddY (mouse) assessed as mortality at 7 mg/kg, ip after 5 days; type: organism-based; set-up: dose 7 mg/kg, route intraperitoneal; details: in vivo
# [12] = Toxicity in ip dosed Mus musculus ddY (mouse) assessed as mortality after 1 to 7 days; type: organism-based; details: in vivo
# [13] = Toxicity in Mus musculus ddY (mouse) assessed as mortality at 4 mg/kg, ip after 2 days; type: organism-based; set-up: dose 4 mg/kg, route intraperitoneal; details: in vivo
# Allium tuberosum [14] = assay: Growth inhibition of Allium tuberosum assessed as root growth at 3 x 10^-4 M after 10 days; type: functional
# [15] = Toxicity in Mus musculus ddY (mouse) assessed as mortality at 3 mg/kg, ip after 6 days; type: organism-based; set-up: dose 3 mg/kg, route intraperitoneal; details: in vivo
# [16] = test system: Brassica rapa subsp. oleifera; assay: Growth inhibition of Brassica rapa subsp. oleifera assessed as root growth at 3 x 10^-4 M after 7 days; type: functional
# Lactuca sativa [17] = assay: Growth inhibition of Lactuca sativa (lettuce) assessed as root growth at 1 x 10^-4 M after 7 days; type: functional
# [18] = test system: Brassica rapa subsp. oleifera; assay: Growth inhibition of Brassica rapa subsp. oleifera assessed as total chlorophyll level at 1 x 10^-4 M after 7 days; type: functional; set-up: scale not given: the % may be the effect or the level left
# Lactuca sativa [19] = assay: Growth inhibition of Lactuca sativa (lettuce) assessed as root growth at 3 x 10^-5 M after 7 days; type: functional
# Sesamum indicum = assay: Growth inhibition of Sesamum indicum (sesame) assessed as root growth at 3 x 10^-4 M after 7 days; type: functional
# [20] = Toxicity in Mus musculus ddY (mouse) assessed as mortality at 3 mg/kg, ip after 2 days; type: organism-based; set-up: dose 3 mg/kg, route intraperitoneal; details: in vivo
# [21] = test system: Brassica rapa subsp. oleifera; assay: Growth inhibition of Brassica rapa subsp. oleifera assessed as chlorophyll a level at 5 x 10^-5 M after 7 days; type: functional; set-up: scale not given: the % may be the effect or the level left
# [22] = test system: Brassica rapa subsp. oleifera; assay: Growth inhibition of Brassica rapa subsp. oleifera assessed as chlorophyll b level at 3 x 10^-4 M after 7 days; type: functional; set-up: scale not given: the % may be the effect or the level left
# [23] = test system: Brassica rapa subsp. oleifera; assay: Growth inhibition of Brassica rapa subsp. oleifera assessed as total chlorophyll level at 3 x 10^-4 M after 7 days; type: functional; set-up: scale not given: the % may be the effect or the level left
# Daucus carota [24] = assay: Growth inhibition of Daucus carota (carrot) assessed as root growth at 5 x 10^-5 M after 7 days; type: functional
# [25] = Toxicity in Mus musculus ddY (mouse) assessed as mortality at 4 mg/kg, ip after 1 day; type: organism-based; set-up: dose 4 mg/kg, route intraperitoneal; details: in vivo
# [26] = test system: Brassica rapa subsp. oleifera; assay: Growth inhibition of Brassica rapa subsp. oleifera assessed as chlorophyll a level at 3 x 10^-4 M after 7 days; type: functional; set-up: scale not given: the % may be the effect or the level left
# [27] = test system: Brassica rapa subsp. oleifera; assay: Growth inhibition of Brassica rapa subsp. oleifera assessed as total chlorophyll level at 3 x 10^-5 M after 7 days; type: functional; set-up: scale not given: the % may be the effect or the level left
# Lactuca sativa [28] = assay: Growth inhibition of Lactuca sativa (lettuce) assessed as root growth at 5 x 10^-5 M after 7 days; type: functional
# [29] = Toxicity in Mus musculus ddY (mouse) assessed as mortality at 4 mg/kg, ip after 7 days; type: organism-based; set-up: dose 4 mg/kg, route intraperitoneal; details: in vivo
# [30] = Toxicity in Mus musculus ddY (mouse) assessed as mortality at 3 mg/kg, ip after 1 day; type: organism-based; set-up: dose 3 mg/kg, route intraperitoneal; details: in vivo
# [31] = Toxicity in Mus musculus ddY (mouse) assessed as mortality at 7 mg/kg, ip after 4 days; type: organism-based; set-up: dose 7 mg/kg, route intraperitoneal; details: in vivo
# [32] = Toxicity in Mus musculus ddY (mouse) assessed as mortality at 7 mg/kg, ip after 7 days; type: organism-based; set-up: dose 7 mg/kg, route intraperitoneal; details: in vivo
# [33] = Toxicity in Mus musculus ddY (mouse) assessed as mortality at 8 mg/kg, ip after 7 days; type: organism-based; set-up: dose 8 mg/kg, route intraperitoneal; details: in vivo
# [34] = test system: Brassica rapa subsp. oleifera; assay: Growth inhibition of Brassica rapa subsp. oleifera assessed as chlorophyll a level at 3 x 10^-5 M after 7 days; type: functional; set-up: scale not given: the % may be the effect or the level left
# [35] = Toxicity in Mus musculus ddY (mouse) assessed as mortality at 6 mg/kg, ip after 5 days; type: organism-based; set-up: dose 6 mg/kg, route intraperitoneal; details: in vivo
# [36] = Toxicity in Mus musculus ddY (mouse) assessed as mortality at 5 mg/kg, ip after 2 days; type: organism-based; set-up: dose 5 mg/kg, route intraperitoneal; details: in vivo
# Daucus carota [37] = assay: Growth inhibition of Daucus carota (carrot) assessed as root growth at 3 x 10^-4 M after 7 days; type: functional
# Allium tuberosum [38] = assay: Growth inhibition of Allium tuberosum assessed as root growth at 5 x 10^-5 M after 10 days; type: functional
# [39] = Toxicity in Mus musculus ddY (mouse) assessed as mortality at 6 mg/kg, ip after 4 days; type: organism-based; set-up: dose 6 mg/kg, route intraperitoneal; details: in vivo
# [40] = Toxicity in Mus musculus ddY (mouse) assessed as mortality at 3 mg/kg, ip after 3 days; type: organism-based; set-up: dose 3 mg/kg, route intraperitoneal; details: in vivo
# [41] = Toxicity in Mus musculus ddY (mouse) assessed as mortality at 4 mg/kg, ip after 4 days; type: organism-based; set-up: dose 4 mg/kg, route intraperitoneal; details: in vivo
# [42] = Toxicity in Mus musculus ddY (mouse) assessed as mortality at 5 mg/kg, ip after 6 days; type: organism-based; set-up: dose 5 mg/kg, route intraperitoneal; details: in vivo
# [43] = test system: Brassica rapa subsp. oleifera; assay: Growth inhibition of Brassica rapa subsp. oleifera assessed as root growth at 3 x 10^-5 M after 7 days; type: functional
# Echinochloa esculenta = assay: Growth inhibition of Echinochloa esculenta assessed as root growth at 3 x 10^-4 M after 7 days; type: functional
# [44] = Toxicity in Mus musculus ddY (mouse) assessed as mortality at 6 mg/kg, ip after 6 days; type: organism-based; set-up: dose 6 mg/kg, route intraperitoneal; details: in vivo
# [45] = test system: Brassica rapa subsp. oleifera; assay: Growth inhibition of Brassica rapa subsp. oleifera assessed as chlorophyll a level at 1 x 10^-4 M after 7 days; type: functional; set-up: scale not given: the % may be the effect or the level left
# [46] = test system: Brassica rapa subsp. oleifera; assay: Growth inhibition of Brassica rapa subsp. oleifera assessed as chlorophyll b level at 3 x 10^-5 M after 7 days; type: functional; set-up: scale not given: the % may be the effect or the level left
# [47] = Toxicity in Mus musculus ddY (mouse) assessed as mortality at 4 mg/kg, ip after 3 days; type: organism-based; set-up: dose 4 mg/kg, route intraperitoneal; details: in vivo
# [48] = Toxicity in Mus musculus ddY (mouse) assessed as mortality at 5 mg/kg, ip after 3 days; type: organism-based; set-up: dose 5 mg/kg, route intraperitoneal; details: in vivo
# [49] = Toxicity in Mus musculus ddY (mouse) assessed as mortality at 6 mg/kg, ip after 1 day; type: organism-based; set-up: dose 6 mg/kg, route intraperitoneal; details: in vivo
# [50] = Toxicity in Mus musculus ddY (mouse) assessed as mortality at 8 mg/kg, ip after 3 days; type: organism-based; set-up: dose 8 mg/kg, route intraperitoneal; details: in vivo
compound,measurement,setting,value
NN1C(=O)CSC1=S [AMINORHODANINE],mortality at 120 h,[1],100%
same,mortality at 144 h,[2],80%
same,mortality at 24 h,[3],100%
same,mortality at 24 h,[4],80%
same,Activity,Daucus carota [5],11.2 mm
same,mortality at 168 h,[6],60%
same,mortality at 168 h,[7],0%
same,mortality at 48 h,[8],60%
same,Activity,Allium tuberosum [9],5.1 mm
same,mortality at 120 h,[10],0%
same,mortality at 120 h,[11],80%
same,LD50,[12],5.07 mg/kg
same,mortality at 48 h,[13],20%
same,Activity,Allium tuberosum [14],1.4 mm
same,mortality at 144 h,[15],0%
same,Activity,[16],3.5 mm
same,Activity,Lactuca sativa [17],3.2 mm
same,Activity,[18],11.85%
same,Activity,Lactuca sativa [19],6.1 mm
same,Activity,Sesamum indicum,0 mm
same,mortality at 48 h,[20],0%
same,Activity,[21],9.22%
same,Activity,[22],3.4%
same,Activity,[23],11.16%
same,Activity,Daucus carota [24],10.8 mm
same,mortality at 24 h,[25],20%
same,Activity,[26],7.76%
same,Activity,[27],15.83%
same,Activity,Lactuca sativa [28],5.9 mm
same,mortality at 168 h,[29],20%
same,mortality at 24 h,[30],0%
same,mortality at 96 h,[31],80%
same,mortality at 168 h,[32],80%
same,mortality at 168 h,[33],100%
same,Activity,[34],11.07%
same,mortality at 120 h,[35],60%
same,mortality at 48 h,[36],60%
same,Activity,Daucus carota [37],0 mm
same,Activity,Allium tuberosum [38],8.6 mm
same,mortality at 96 h,[39],60%
same,mortality at 72 h,[40],0%
same,mortality at 96 h,[41],20%
same,mortality at 144 h,[42],60%
same,Root length,[43],30.8 mm
same,Activity,Echinochloa esculenta,3.1 mm
same,mortality at 144 h,[44],60%
same,Activity,[45],8.05%
same,Activity,[46],4.78%
same,mortality at 72 h,[47],20%
same,mortality at 72 h,[48],60%
same,mortality at 24 h,[49],60%
same,mortality at 72 h,[50],100%
